Test system: 349418-098-R-PDC complex spheroid viability
Experiment: Anticancer human tumor 349418-098-R-PDC patient-derived lung adenocarcinoma cell line growth inhibition
Settings: for IC50: curve of first compound; for viability, T/C: stronger effect = lower value
How it was run: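 Drug combinations with the LSD1 inhibitor iadademstat tested on tumor cells co-cultured as spheroids with endothelial cells and mesenchymal stem cells. Concentrations descended in half-log increments from clinical Cmax or 10 microM.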

[1] = second compound 0.1 µM, first compound 0.00949 µM
[2] = second compound 0.1 µM, first compound 0.03 µM
[3] = second compound 0.1 µM, first compound 0.0949 µM
[4] = second compound 0.1 µM, first compound 0.3 µM
[5] = second compound 0.316 µM, first compound 0.00949 µM
[6] = second compound 0.316 µM, first compound 0.03 µM
[7] = second compound 0.316 µM, first compound 0.0949 µM
[8] = second compound 0.316 µM, first compound 0.3 µM
[9] = second compound 1 µM, first compound 0.00949 µM
[10] = second compound 1 µM, first compound 0.03 µM
[11] = second compound 1 µM, first compound 0.0949 µM
[12] = second compound 1 µM, first compound 0.3 µM
[13] = second compound 3.16 µM, first compound 0.00949 µM
[14] = second compound 3.16 µM, first compound 0.03 µM
[15] = second compound 3.16 µM, first compound 0.0949 µM
[16] = second compound 3.16 µM, first compound 0.3 µM
[17] = second compound 10 µM, first compound 0.00949 µM
[18] = second compound 10 µM, first compound 0.03 µM
[19] = second compound 10 µM, first compound 0.0949 µM
[20] = second compound 10 µM, first compound 0.3 µM
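Further: spheroids exposed to agents for seven days before readout.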
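Wherever viability, T/C is given: 100% = DMSO vehicle control wells.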

Structure (SMILES): CCc1c2c(nc3ccc(O)cc13)-c1cc3c(c(=O)n1C2)COC(=O)[C@]3(O)CC + NC1CCC(NC2CC2c2ccccc2)CC1
- IC50 (second compound 0.1 µM): < 0.949 nM
- IC50 (second compound 0.316 µM): < 0.949 nM
- IC50 (second compound 1 µM): < 0.949 nM
- IC50 (second compound 3.16 µM): < 0.949 nM
- IC50 (second compound 10 µM): < 0.949 nM
- viability, T/C (second compound 0.1 µM, first compound 0.000949 µM): 4.09%
- viability, T/C (second compound 0.1 µM, first compound 0.003 µM): 2.43%
- viability, T/C [1]: 2.12%
- viability, T/C [2]: 1.2%
- viability, T/C [3]: 1.37%
- viability, T/C [4]: 1.52%
- viability, T/C (second compound 0.316 µM, first compound 0.000949 µM): 3.85%
- viability, T/C (second compound 0.316 µM, first compound 0.003 µM): 2.61%
- viability, T/C [5]: 2.07%
- viability, T/C [6]: 1.29%
- viability, T/C [7]: 1.05%
- viability, T/C [8]: 1.44%
- viability, T/C (second compound 1 µM, first compound 0.000949 µM): 4.08%
- viability, T/C (second compound 1 µM, first compound 0.003 µM): 2.65%
- viability, T/C [9]: 1.89%
- viability, T/C [10]: 1.41%
- viability, T/C [11]: 1.14%
- viability, T/C [12]: 1.59%
- viability, T/C (second compound 3.16 µM, first compound 0.000949 µM): 3.68%
- viability, T/C (second compound 3.16 µM, first compound 0.003 µM): 2.54%
- viability, T/C [13]: 1.99%
- viability, T/C [14]: 1.37%
- viability, T/C [15]: 1.05%
- viability, T/C [16]: 1.61%
- viability, T/C (second compound 10 µM, first compound 0.000949 µM): 3.85%
- viability, T/C (second compound 10 µM, first compound 0.003 µM): 2.63%
- viability, T/C [17]: 2.13%
- viability, T/C [18]: 1.59%
- viability, T/C [19]: 1.21%
- viability, T/C [20]: 1.47%

Structure (SMILES): CC1COCCN1c1cc(C2(S(C)(=N)=O)CC2)nc(-c2ccnc3[nH]ccc23)n1 (stereo not given) + NC1CC1c1ccc(-c2cccc(O)c2)cc1
- IC50 (second compound 0.1 µM): 1050 nM
- IC50 (second compound 0.316 µM): 1020 nM
- IC50 (second compound 1 µM): 931 nM
- IC50 (second compound 3.16 µM): 1070 nM
- IC50 (second compound 10 µM): 709 nM
- viability, T/C (second compound 0.1 µM, first compound 0.0316 µM): 114%
- viability, T/C (second compound 0.1 µM, first compound 0.1 µM): 113%
- viability, T/C (second compound 0.1 µM, first compound 0.316 µM): 111%
- viability, T/C (second compound 0.1 µM, first compound 1 µM): 51.8%
- viability, T/C (second compound 0.1 µM, first compound 3.16 µM): 11.8%
- viability, T/C (second compound 0.1 µM, first compound 10 µM): 10.9%
- viability, T/C (second compound 0.316 µM, first compound 0.0316 µM): 120%
- viability, T/C (second compound 0.316 µM, first compound 0.1 µM): 111%
- viability, T/C (second compound 0.316 µM, first compound 0.316 µM): 104%
- viability, T/C (second compound 0.316 µM, first compound 1 µM): 51.2%
- viability, T/C (second compound 0.316 µM, first compound 3.16 µM): 11.5%
- viability, T/C (second compound 0.316 µM, first compound 10 µM): 9.93%
- viability, T/C (second compound 1 µM, first compound 0.0316 µM): 115%
- viability, T/C (second compound 1 µM, first compound 0.1 µM): 116%
- viability, T/C (second compound 1 µM, first compound 0.316 µM): 115%
- viability, T/C (second compound 1 µM, first compound 1 µM): 45.6%
- viability, T/C (second compound 1 µM, first compound 3.16 µM): 13.9%
- viability, T/C (second compound 1 µM, first compound 10 µM): 10.7%
- viability, T/C (second compound 3.16 µM, first compound 0.0316 µM): 118%
- viability, T/C (second compound 3.16 µM, first compound 0.1 µM): 103%
- viability, T/C (second compound 3.16 µM, first compound 0.316 µM): 115%
- viability, T/C (second compound 3.16 µM, first compound 1 µM): 52.3%
- viability, T/C (second compound 3.16 µM, first compound 3.16 µM): 13.3%
- viability, T/C (second compound 3.16 µM, first compound 10 µM): 9.27%
- viability, T/C (second compound 10 µM, first compound 0.0316 µM): 91.3%
- viability, T/C (second compound 10 µM, first compound 0.1 µM): 94.1%
- viability, T/C (second compound 10 µM, first compound 0.316 µM): 86.6%
- viability, T/C (second compound 10 µM, first compound 1 µM): 34.3%
- viability, T/C (second compound 10 µM, first compound 3.16 µM): 11.2%
- viability, T/C (second compound 10 µM, first compound 10 µM): 6.83%

Structure (SMILES): NS(=O)(=O)OCC1CC(n2ccc3c(NC4CCc5ccccc54)ncnc32)CC1O (stereo not given) + NC1CCC(NC2CC2c2ccccc2)CC1
- IC50 (second compound 0.1 µM): 67.2 nM
- IC50 (second compound 0.316 µM): 86.6 nM
- IC50 (second compound 1 µM): 93 nM
- IC50 (second compound 3.16 µM): 82.3 nM
- IC50 (second compound 10 µM): 66.6 nM
- viability, T/C [1]: 99.3%
- viability, T/C [2]: 94.8%
- viability, T/C [3]: 30.6%
- viability, T/C [4]: 15.2%
- viability, T/C (second compound 0.1 µM, first compound 0.949 µM): 8.16%
- viability, T/C (second compound 0.1 µM, first compound 3 µM): 4.47%
- viability, T/C [5]: 118%
- viability, T/C [6]: 100%
- viability, T/C [7]: 44.5%
- viability, T/C [8]: 16.1%
- viability, T/C (second compound 0.316 µM, first compound 0.949 µM): 7.56%
- viability, T/C (second compound 0.316 µM, first compound 3 µM): 4.71%
- viability, T/C [9]: 111%
- viability, T/C [10]: 104%
- viability, T/C [11]: 47.1%
- viability, T/C [12]: 17.1%
- viability, T/C (second compound 1 µM, first compound 0.949 µM): 6.19%
- viability, T/C (second compound 1 µM, first compound 3 µM): 4.32%
- viability, T/C [13]: 108%
- viability, T/C [14]: 103%
- viability, T/C [15]: 40.6%
- viability, T/C [16]: 22.6%
- viability, T/C (second compound 3.16 µM, first compound 0.949 µM): 7.16%
- viability, T/C (second compound 3.16 µM, first compound 3 µM): 4.58%
- viability, T/C [17]: 84.9%
- viability, T/C [18]: 88.7%
- viability, T/C [19]: 33.6%
- viability, T/C [20]: 16.6%
- viability, T/C (second compound 10 µM, first compound 0.949 µM): 6.64%
- viability, T/C (second compound 10 µM, first compound 3 µM): 4.12%

From PubChem BioAssay AID1918936 (Molecular Pharmacology Branch, DTP, NCI, 2023)
